# Target: FXR (Homo sapiens (Human), UniProt Q96RI1)
# Experiment: transient human FXR/Gal4-luciferase reporter assay
# Assay type: cell-based
# Conditions: not given
# Outline: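 HEK293 cells stably carrying a 5×Gal4 response element–firefly luciferase reporter were transiently transfected overnight with a Gal4 DBD–human FXR LBD fusion plasmid. Compound was added in DMSO and cells were incubated overnight at 37 °C, 5% CO2. Activity was read as Steady-Glo luminescence.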
# Chain of FXR (Q96RI1 262-486): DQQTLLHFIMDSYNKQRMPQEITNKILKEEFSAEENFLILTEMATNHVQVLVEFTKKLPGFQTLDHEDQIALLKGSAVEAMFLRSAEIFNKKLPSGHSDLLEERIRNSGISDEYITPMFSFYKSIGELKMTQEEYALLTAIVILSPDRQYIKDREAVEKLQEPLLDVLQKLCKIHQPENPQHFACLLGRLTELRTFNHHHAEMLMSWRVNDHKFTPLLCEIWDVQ
row,Structure (SMILES),EC50 [nM]
1,"CC(C)(O)c1ccc(-c2cccc(N(CC34CCC(c5noc(C(C)(C)F)n5)(CC3)CC4)C(=O)NCCC3(O)CCCC3)c2)cc1 [Example 650, 1-((4-(5-(2-fluoropropan-2-yl)-1,2,4-oxadiazol-3-yl)bicyclo[2.2.2]octan-1-yl)methyl)-3-(2-(1-hydroxycyclopentyl)ethyl)-1-(4′-(2-hydroxypropan-2-yl)-[1,1′-biphenyl]-3-yl)urea]",472
2,"CCc1ccc(-c2cccc(N(CC34CCC(c5ccc(C(F)(F)F)cn5)(CC3)CC4)C(=O)C34CC(F)(C3)C4)c2)cc1 [Example 497, N-(4′-ethyl-[1,1′-biphenyl]-3-yl)-3-fluoro-N-((4-(5-(trifluoromethyl)pyridin-2-yl)bicyclo[2.2.2]octan-1-yl)methyl)bicyclo[1.1.1]pentane-1-carboxamide]",989

# Same assay, conditions: Gal4-hFXR fusion construct, HEK293 reporter cells; response relative to 8 μM GW-4064
row,Structure (SMILES),EC50 [nM]
1,"Cn1ncc2cc(C#N)c(-c3cccc(N(CC45CCC(c6nc(C7CC7)no6)(CC4)CC5)C(=O)C45CC(F)(C4)C5)c3)nc21 [Example 313, N-(3-(5-cyano-1-methyl-1H-pyrazolo[3,4-b]pyridin-6-yl)phenyl)-N-((4-(3-cyclopropyl-1,2,4-oxadiazol-5-yl)bicyclo[2.2.2]octan-1-yl)methyl)-3-fluorobicyclo[1.1.1]pentane-1-carboxamide]",194
2,"COc1ccc(-c2cccc(N(CC34CCC(c5nc(C6CC6)no5)(CC3)CC4)C(=O)C34CC(F)(C3)C4)c2)cc1C#N [Example 296, N-(3′-cyano-4′-methoxy-[1,1′-biphenyl]-3-yl)-N-((4-(3-cyclopropyl-1,2,4-oxadiazol-5-yl)bicyclo[2.2.2]octan-1-yl)methyl)-3-fluorobicyclo[1.1.1]pentane-1-carboxamide]",294
3,"N#Cc1ccc(-c2cccc(N(CC34CCC(c5nc(C6CC6)no5)(CC3)CC4)C(=O)C34CC(F)(C3)C4)c2)c2cccnc12 [Example 311, N-(3-(8-cyanoquinolin-5-yl)phenyl)-N-((4-(3-cyclopropyl-1,2,4-oxadiazol-5-yl)bicyclo[2.2.2]octan-1-yl)methyl)-3-fluorobicyclo[1.1.1]pentane-1-carboxamide]",662
4,"CCOc1ncc(-c2cccc(N(CC34CCC(c5cc(C6CC6)n(C)n5)(CC3)CC4)C(=O)C34CC(F)(C3)C4)c2)cn1 [Example 407, N-((4-(5-cyclopropyl-1-methyl-1H-pyrazol-3-yl)bicyclo[2.2.2]octan-1-yl)methyl)-N-(3-(2-ethoxypyrimidin-5-yl)phenyl)-3-fluorobicyclo[1.1.1]pentane-1-carboxamide]",209
5,"COc1ccc(-c2cccc(N(CC34CCC(c5nc(C(C)C)no5)(CC3)CC4)C(=O)C34CC(F)(C3)C4)c2)cc1 [Example 377, 3-fluoro-N-((4-(3-isopropyl-1,2,4-oxadiazol-5-yl)bicyclo[2.2.2]octan-1-yl)methyl)-N-(4′-methoxy-[1,1′-biphenyl]-3-yl)bicyclo[1.1.1]pentane-1-carboxamide]",52
6,"O=C(N(CC12CCC(c3nc(C4CC4)no3)(CC1)CC2)c1cccc(-c2ccnc(OC3CC3)n2)c1)C12CC(F)(C1)C2 [Example 337, N-(3-(2-cyclopropoxypyrimidin-4-yl)phenyl)-N-((4-(3-cyclopropyl-1,2,4-oxadiazol-5-yl)bicyclo[2.2.2]octan-1-yl)methyl)-3-fluorobicyclo[1.1.1]pentane-1-carboxamide]",380
7,"O=C(N(CC12CCC(c3noc(C4(F)CC4)n3)(CC1)CC2)c1cccc(-c2cnc(C3CC3)nc2)c1)C12CC(F)(C1)C2 [Example 579, N-(3-(2-cyclopropylpyrimidin-5-yl)phenyl)-3-fluoro-N-((4-(5-(1-fluorocyclopropyl)-1,2,4-oxadiazol-3-yl)bicyclo[2.2.2]octan-1-yl)methyl)bicyclo[1.1.1]pentane-1-carboxamide]",45
8,"CC(C)(F)c1nc(C23CCC(CN(c4cccc(C5=CCOCC5)c4)C(=O)[C@H]4C[C@](O)(C(F)(F)F)C4)(CC2)CC3)no1 [Example 588, (cis)-N-(3-(3,6-dihydro-2H-pyran-4-yl)phenyl)-N-((4-(5-(2-fluoropropan-2-yl)-1,2,4-oxadiazol-3-yl)bicyclo[2.2.2]octan-1-yl)methyl)-3-hydroxy-3-(trifluoromethyl) cyclobutane-1-carboxamide]",395
9,"CC(C)(O)c1ccc(-c2cccc(N(CC34CCC(c5noc(C(C)(C)F)n5)(CC3)CC4)C(=O)N[C@H]3C[C@]4(C[C@@H](O)C4)C3)c2)cc1 (stereo partly drawn) [Example 664, 1-((4-(5-(2-fluoropropan-2-yl)-1,2,4-oxadiazol-3-yl)bicyclo[2.2.2]octan-1-yl)methyl)-1-(4′-(2-hydroxypropan-2-yl)-[1,1′-biphenyl]-3-yl)-3-((2S,4S,6S)-6-hydroxyspiro[3.3]heptan-2-yl)urea]",47
10,"Cc1nc2ccc(-c3cccc(N(CC45CCC(c6ccc(C#N)cc6)(CC4)OC5)C(=O)C45CC(F)(C4)C5)c3)cc2s1 [Example 568, N-((1-(4-Cyanophenyl)-2-oxabicyclo[2.2.2]octan-4-yl)methyl)-3-fluoro-N-(3-(2-methylbenzo[d]thiazol-6-yl)phenyl)bicyclo[1.1.1]pentane-1-carboxamide]",2440
11,"Cc1cnc(-c2cccc(N(CC34CCC(c5nc(C(C)C)no5)(CC3)CC4)C(=O)C34CC(F)(C3)C4)c2)nc1 [Example 393, 3-fluoro-N-((4-(3-isopropyl-1,2,4-oxadiazol-5-yl)bicyclo[2.2.2]octan-1-yl)methyl)-N-(3-(5-methylpyrimidin-2-yl)phenyl)bicyclo[1.1.1]pentane-1-carboxamide]",49
12,"Cc1cn2cc(-c3cccc(N(CC45CCC(c6nc(C7CC7)no6)(CC4)CC5)C(=O)C45CC(F)(C4)C5)c3)c(C)cc2n1 [Example 320, N-((4-(3-cyclopropyl-1,2,4-oxadiazol-5-yl)bicyclo[2.2.2]octan-1-yl)methyl)-N-(3-(2,7-dimethylimidazo[1,2-a]pyridin-6-yl)phenyl)-3-fluorobicyclo[1.1.1]pentane-1-carboxamide]",493
13,"O=C(N(CC12CCC(c3ccc(C(F)(F)F)cn3)(CC1)CC2)c1cccc(-c2ccc(OC(F)F)cn2)c1)C12CC(F)(C1)C2 [Example 495, N-(3-(5-(difluoromethoxy)pyridin-2-yl)phenyl)-3-fluoro-N-((4-(5-(trifluoromethyl)pyridin-2-yl)bicyclo[2.2.2]octan-1-yl)methyl)bicyclo[1.1.1]pentane-1-carboxamide]",271
14,"CCOc1ncc(-c2cncc(N(CC34CCC(c5nc(C(C)(C)C)no5)(CC3)CC4)C(=O)C34CC(F)(C3)C4)c2)cn1 [Example 472, N-((4-(3-(tert-butyl)-1,2,4-oxadiazol-5-yl)bicyclo[2.2.2]octan-1-yl)methyl)-N-(5-(2-ethoxypyrimidin-5-yl)pyridin-3-yl)-3-fluorobicyclo[1.1.1]pentane-1-carboxamide]",758
15,"CCOc1ccc(-c2cccc(N(CC34CCC(c5nc(C(C)(C)C)no5)(CC3)CC4)C(=O)C34CC(F)(C3)C4)c2)cn1 [Example 360, N-((4-(3-(tert-butyl)-1,2,4-oxadiazol-5-yl)bicyclo[2.2.2]octan-1-yl)methyl)-N-(3-(6-ethoxypyridin-3-yl)phenyl)-3-fluorobicyclo[1.1.1]pentane-1-carboxamide]",147

# Reference: patent US11254663B2 (BRISTOL-MYERS SQUIBB COMPANY, priority 2019, dated 2022)
